In patent US8142805B1, “Implantable devices including fixed tissues” (Clemson University Research Foundation, priority 2006, dated 2012):

Tested on: hyaluronidase
Assay: Hyaluronic acid zymography of explant tissue capsules
Assay type: biochemical, rats
Conditions: developing buffer containing 1 M neomycin; HA gels
Procedure: Hyaluronic acid zymography studies were performed to study the inhibitory effect of neomycin on hyaluronidase. Tissue capsules from 3 weeks explanted treated aortic cusp samples were homogenized and used for gel zymography. Hyaluronic acid (HA) gels were made by incorporating 170 μg/ml of HA in 10% polyacrylamide gels. The tissue extracts were run at 90 Volts for 150 minutes. Protein molecular weight standards (10-150 kDa) were used to identify the molecular weights. Gels were incubated in the developing buffer (two for each sample type) and gels were also incubated in developing buffer containing 1 M neomycin. FIG. 8a and FIG. 8B show similar band intensities for active hyaluronidases in all groups. Thus, presence of more GAGs in Group 1 (Neomycin+EDC+GLUT) was not due to lower enzyme activity in this group as compared to other groups.

## NCC1OC(OC2C(CO)OC(OC3C(O)C(N)CC(N)C3OC3OC(CN)C(O)C(O)C3N)C2O)C(N)C(O)C1O (stereo not shown) [neomycin trisulfate]
  effect on hyaluronidase activity (zymography band density): inhibited enzyme activity
